From ChEMBL document CHEMBL3600350, “Peptide HIV fusion inhibitors: modifications and conjugations” (Medchemcomm, 2014)
Numbered stars: 1 amine (or outer) side, 2 acyl side, 3 side chain; on linkers, the order of the positions; unused ones are H or OH. Square brackets hold non-standard residues; d marks the D form. Peptide text beside a SMILES is read from it. X1 = CCCCCCCCCCCCCCCC(=O)NC(=O)CC[C@H](N[*:1])C(=O)[*:2]

tested on: Human immunodeficiency virus 1; assay: Antiviral activity against HIV-1 HXB2 assessed as inhibition of viral fusion with human TZM-bl cells after 6 hrs by luciferase reporter gene assay; assay type: functional, organism-based; conditions: Human immunodeficiency virus 1, HXB2, TZM-bl

IC50 [nM]	Molecule
2860	H-YTSLIHSLIEESQNQQEKNEQELLE-OH
1.3	CCCCCCCCCCCCCCCC(=O)[C@H](CCCCN)NC(=O)[C@H](CCC(=O)O)NC(=O)[C@H](CC(C)C)NC(=O)[C@H](CC(C)C)NC(=O)[C@H](CCC(=O)O)NC(=O)[C@H](CCC(N)=O)NC(=O)[C@H](CCC(=O)O)NC(=O)[C@H](CC(N)=O)NC(=O)[C@H](CCCCN)NC(=O)[C@H](CCC(=O)O)NC(=O)[C@H](CCC(N)=O)NC(=O)[C@H](CCC(N)=O)NC(=O)[C@H](CC(N)=O)NC(=O)[C@H](CCC(N)=O)NC(=O)[C@H](CO)NC(=O)[C@H](CCC(=O)O)NC(=O)[C@H](CCC(=O)O)NC(=O)[C@@H](NC(=O)[C@H](CC(C)C)NC(=O)[C@H](CO)NC(=O)[C@H](Cc1c[nH]cn1)NC(=O)[C@@H](NC(=O)[C@H](CC(C)C)NC(=O)[C@H](CO)NC(=O)[C@@H](NC(=O)[C@@H](N)Cc1ccc(O)cc1)[C@H](C)O)[C@@H](C)CC)[C@@H](C)CC

tested on: Human immunodeficiency virus 1; assay: Antiviral activity against HIV-1 HXB2 assessed as inhibition of viral infection in human TZM-bl cells after 18 hrs by steady-glo luciferase reporter gene assay; assay type: functional, organism-based; conditions: Human immunodeficiency virus 1, HXB2, TZM-bl

IC50 [nM]	Molecule
> 4000	CC[C@H](C)[C@H](NC(=O)[C@H](CC(C)C)NC(=O)[C@H](CO)NC(=O)[C@H](Cc1c[nH]cn1)NC(=O)[C@@H](NC(=O)[C@H](CC(C)C)NC(=O)[C@H](CO)NC(=O)[C@@H](NC(=O)[C@@H](N)Cc1ccc(O)cc1)[C@H](C)O)[C@@H](C)CC)C(=O)N[C@@H](CCC(=O)O)C(=O)N[C@@H](CCC(=O)O)C(=O)N[C@@H](CO)C(=O)N[C@@H](CCC(N)=O)C(=O)N[C@@H](CC(N)=O)C(=O)N[C@@H](CCC(N)=O)C(=O)N[C@@H](CCC(N)=O)C(=O)N[C@@H](CCC(=O)O)C(=O)N[C@@H](CCCCN)C(=O)N[C@@H](CC(N)=O)C(=O)N[C@@H](CCCCN)C(=O)O
> 4000	CC[C@H](C)[C@H](NC(=O)CNC(=O)[C@H](Cc1c[nH]c2ccccc12)NC(=O)[C@@H](NC(=O)[C@@H](NC(=O)[C@H](CC(C)C)NC(=O)[C@H](CCC(N)=O)NC(=O)[C@H](CC(C)C)NC(=O)[C@@H](N)CC(C)C)[C@H](C)O)C(C)C)C(=O)N[C@@H](CCCCN)C(=O)N[C@@H](CCC(N)=O)C(=O)N[C@@H](CC(C)C)C(=O)N[C@@H](CCC(N)=O)C(=O)N[C@@H](C)C(=O)N[C@@H](CCCNC(=N)N)C(=O)N[C@H](C(=O)N[C@@H](CC(C)C)C(=O)O)[C@@H](C)CC

Further lines, the molecule ahead of its results:

Molecule	IC50 [nM]
CCCCCCCCCCCCCCCC(O)C(CO)NC(=O)NC(=O)[C@H](CCCCN)NC(=O)[C@H](CC(N)=O)NC(=O)[C@H](CCCCN)NC(=O)[C@H](CCC(=O)O)NC(=O)[C@H](CCC(N)=O)NC(=O)[C@H](CCC(N)=O)NC(=O)[C@H](CC(N)=O)NC(=O)[C@H](CCC(N)=O)NC(=O)[C@H](CO)NC(=O)[C@H](CCC(=O)O)NC(=O)[C@H](CCC(=O)O)NC(=O)[C@@H](NC(=O)[C@H](CC(C)C)NC(=O)[C@H](CO)NC(=O)[C@H](Cc1c[nH]cn1)NC(=O)[C@@H](NC(=O)[C@H](CC(C)C)NC(=O)[C@H](CO)NC(=O)[C@@H](NC(=O)[C@@H](N)Cc1ccc(O)cc1)[C@H](C)O)[C@@H](C)CC)[C@@H](C)CC (some centres undefined)	350
CCCCCCCCCCCCCCCC(O)C(CO)NCNC(=O)[C@@H](CCCCN)NC(=O)[C@H](CC(C)C)NC(=O)[C@@H](NC(=O)[C@H](CCCNC(=N)N)NC(=O)[C@H](C)NC(=O)[C@H](CCC(N)=O)NC(=O)[C@H](CC(C)C)NC(=O)[C@H](CCC(N)=O)NC(=O)[C@H](CCCCN)NC(=O)[C@@H](NC(=O)CNC(=O)[C@H](Cc1c[nH]c2ccccc12)NC(=O)[C@@H](NC(=O)[C@@H](NC(=O)[C@H](CC(C)C)NC(=O)[C@H](CCC(N)=O)NC(=O)[C@H](CC(C)C)NC(=O)[C@@H](N)CC(C)C)[C@H](C)O)C(C)C)[C@@H](C)CC)[C@@H](C)CC (some centres undefined)	287
CCCCCCCCCCCCCCCC(O)C(CO)NC(=O)N[C@@H](CC(C)C)C(=O)N[C@@H](CC(C)C)C(=O)N[C@@H](CCC(N)=O)C(=O)N[C@@H](CC(C)C)C(=O)N[C@H](C(=O)N[C@H](C(=O)N[C@@H](Cc1c[nH]c2ccccc12)C(=O)NCC(=O)N[C@H](C(=O)N[C@@H](CCCCN)C(=O)N[C@@H](CCC(N)=O)C(=O)N[C@@H](CC(C)C)C(=O)N[C@@H](CCC(N)=O)C(=O)N[C@@H](C)C(=O)N[C@@H](CCCNC(=N)N)C(=O)N[C@H](C(=O)N[C@@H](CC(C)C)C(=O)O)[C@@H](C)CC)[C@@H](C)CC)C(C)C)[C@H](C)O (some centres undefined)	121

tested on: not listed separately; assay: Inhibition of HIV-1 HXBc2 env-mediated cell fusion between viral infected human Jurkat cells and non infected human Jurkat E6-1 cells after 6 hrs by DiI/DiD probe-based flow cytometric analysis; conditions: Human immunodeficiency virus 1, HXBc2, Jurkat

Molecule	IC50 [nM]
H-LLSGIVQQQNNLLRAIEAQQHLLQ-OH	338
CCCCCCCCCCCCCCCC(=O)NC(=O)CC[C@H](N)C(=O)N[C@@H](CC(C)C)C(=O)N[C@@H](CC(C)C)C(=O)N[C@@H](CO)C(=O)NCC(=O)N[C@H](C(=O)N[C@H](C(=O)N[C@@H](CCC(N)=O)C(=O)N[C@@H](CCC(N)=O)C(=O)N[C@@H](CCC(N)=O)C(=O)N[C@@H](CC(N)=O)C(=O)N[C@@H](CC(N)=O)C(=O)N[C@@H](CC(C)C)C(=O)N[C@@H](CC(C)C)C(=O)N[C@@H](CCCNC(=N)N)C(=O)N[C@@H](C)C(=O)N[C@H](C(=O)N[C@@H](CCC(=O)O)C(=O)N[C@@H](C)C(=O)N[C@@H](CCC(N)=O)C(=O)N[C@@H](CCC(N)=O)C(=O)N[C@@H](Cc1c[nH]cn1)C(=O)N[C@@H](CC(C)C)C(=O)N[C@@H](CC(C)C)C(=O)N[C@@H](CCC(N)=O)C(=O)O)[C@@H](C)CC)C(C)C)[C@@H](C)CC (H-[X1]LLSGIVQQQNNLLRAIEAQQHLLQ-OH)	10
